Values of other authors as cited in article PMC10576142, “Intrinsic structural dynamics dictate enzymatic activity and inhibition” (Proceedings of the National Academy of Sciences of the …, 2023).

System: HDAC8
Parameters: method as in PMID 24079912

Structure (SMILES): CC(/C=C/C(=O)NO)=C\[C@@H](C)C(=O)c1ccc(N(C)C)cc1 [TCSA, trichostatin A]
- overall off-rate: 0.1 s⁻¹
